Read-outs that look alike come from different tables or passages of the source.
Columns and labels:
in vitro = conditions: microsomes, pH 7.4
Method: Phosphate buffer preparation: Weigh 7.098 g of disodium hydrogen phosphate, add 500 mL of pure water and dissolve by ultrasonication to obtain a disodium hydrogen phosphate solution. Weigh 3.400 g of potassium dihydrogen phosphate, add 250 mL of pure water and dissolve by ultrasonication to obtain a potassium dihydrogen phosphate solution. The disodium hydrogen phosphate solution and potassium dihydrogen phosphate solution were mixed and adjusted to pH 7.4+0.2.
10 mM NADPH preparation: Weigh an appropriate amount of NADPH (reduced coenzyme II), freshly prepare a 10 mM working solution with phosphate buffer, and the final concentration is 1 mM.
Incubation system preparation: Prepare the suspension into the incubation plate according to Table 5, and pre-incubate in a 37°C water bath for 10 min. Table 5 Incubation System Preparation
2 µL of positive control or test compound working solution was added to 358 µL of the incubation system, mixed uniformly by vortexing, and all samples were prepared in duplicate. 40 µL of 10 mM NADPH was added to the system, mixed uniformly by low-speed vortexing, and the reaction timing was started. […] Centrifuge at 4700 rpm, 4°C for 15 minutes to precipitate proteins. Transfer 100 µL of the supernatant to the sample plate, add 100 µL of pure water and mix well for UPLC-MS/MS analysis. Table 6 Liver Microsome Stability Results

[1] = Pharmacokinetic test, single oral dose, plasma LC-MS/MS; assay type: in vivo; conditions: mouse, male ICR mice; for half-life: read-out: half-life T1/2 (converted); for Cmax: read-out: peak concentration Cmax; for Tmax: read-out: peak time Tmax
Method: Test Method: Three ICR mice (male) were used for each compound, with five groups in total. Mice were treated with a single oral dose of 10 mg/kg or 5 mg/kg. For each mouse, blood samples were collected at 0.25, 0.5, 1, 2, 4, and 8 hours after administration. Whole blood samples were placed in test tubes containing EDTA-K2, inverted up and down several times, and then centrifuged at 6000 rpm, 4°C for 15 minutes to obtain plasma. The concentration of the compound in plasma samples was determined using the LC-MS/MS method. Table 4 Pharmacokinetic Results of Different Compounds

RBP4 = biological target: T1, RBP4 (Mus musculus, UniProt Q00724); test: Plasma RBP4 content detection test (ELISA) after single oral dose; assay type: in vivo, ICR male mice; conditions: 5 mg/kg oral, maximum reduction within 5 to 24 hours vs 0-hour value
T1 construct: from tissue; host or cells: plasma of ICR male mice
Method: Test Method: ICR male mice aged 7 to 8 weeks were adaptively fed for 3 to 7 days and randomly divided into groups (4 mice per group), and fasted for 12 hours before the test. Orbital venous blood samples were collected and plasma was separated before administration on the test day (0-hour value as the initial content). Then, test compounds at a dose of 1 mg/kg or 5 mg/kg were orally administered (vehicle: 5% DMSO + 10% cyclodextrin), and vehicle (5% DMSO + 10% cyclodextrin) was orally administered as a control group. Orbital venous blood samples were collected and plasma was separated at 5, 8, 10, 12, and 24 hours after compound administration. The RBP4 content in plasma samples was detected using Mouse RBP4 (Retinol Binding Protein 4, Plasma) ELISA Kit (immunoway, KE1574), the reduction rate was calculated, and the maximum reduction rate within 5 to 24 hours was selected. Reduction rate of RBP4 content in mouse plasma at different sampling time points = (Initial RBP4 content - RBP4 content at sampling point) / Initial RBP4 content. Table 2 Plasma RBP4 Reduction Levels of Different Compounds

[2] = in vivo, single oral dose 10 mg/kg

half-life at 1 µM (in vitro; human) [min] | microsomal CLint at 1 µM (in vitro; human) [µL/min/mg] | half-life at 1 µM (in vitro; mouse) [min] | microsomal CLint at 1 µM (in vitro; mouse) [µL/min/mg] | AUC(0-t) [1, 2] [ng·h/mL] | half-life [1, 2] [min] | Cmax [1, 2] [ng/mL] | Tmax [1, 2] [min] | Maximum Plasma RBP4 Reduction Rate (5 mg/kg dose) (RBP4) [%] | AUC(0-t) ([1]; single oral dose 10 mg/kg) [ng·h/mL] | half-life ([1]; single oral dose 10 mg/kg) [min] | Cmax ([1]; single oral dose 10 mg/kg) [ng/mL] | Tmax ([1]; single oral dose 10 mg/kg) [min] | AUC(0-t) ([1]; single oral dose 5 mg/kg) [ng·h/mL] | half-life ([1]; single oral dose 5 mg/kg) [min] | Cmax ([1]; single oral dose 5 mg/kg) [ng/mL] | Tmax ([1]; single oral dose 5 mg/kg) [min] | SMILES
> 180 | < 7.44 | 45.9 | 30.2 | 2460 | 167 | 1240 | 30 | 41 | – | – | – | – | – | – | – | – | CC(=O)N1CCc2c(C(=O)N3CC=C(c4ccc(F)c(F)c4C(F)(F)F)CC3)n[nH]c2C1 [Compound 1]
94.4 | 14.7 | 18.8 | 73.6 | – | – | – | – | – | – | – | – | – | – | – | – | – | CC(=O)N1CCc2c(C(=O)N3CC=C(c4cccc(F)c4C(F)(F)F)CC3)n[nH]c2C1 [Compound 2]
18.7 | 74 | 26.3 | 52.7 | – | – | – | – | – | 119 | 442 | 159 | 30 | – | – | – | – | COCCN1CCc2c(C(=O)N3CC=C(c4cccc(F)c4C(F)(F)F)CC3)n[nH]c2C1 [Compound 3]
63 | 22 | 9.46 | 146 | – | – | – | – | – | 383 | 230 | 285 | 30 | – | – | – | – | COCC(=O)N1CCc2c(C(=O)N3CC=C(c4cccc(F)c4C(F)(F)F)CC3)n[nH]c2C1 [Compound 6]
103 | 13.4 | 15.6 | 89 | – | – | – | – | 64 | 1530 | 89.4 | 1050 | 30 | – | – | – | – | COCC(=O)N1CCc2c(C(=O)N3CC=C(c4ccc(F)c(F)c4C(F)(F)F)CC3)n[nH]c2C1 [Compound 7]
70.4 | 19.7 | 6.79 | 204 | – | – | – | – | – | 556 | 199 | 515 | 30 | – | – | – | – | [2H]C([2H])([2H])OCC(=O)N1CCc2c(C(=O)N3CC=C(c4cccc(F)c4C(F)(F)F)CC3)n[nH]c2C1 [Compound 8]
130 | 10.6 | 17.2 | 80.8 | – | – | – | – | 82 | 1030 | 40 | 1090 | 30 | – | – | – | – | [2H]C([2H])([2H])OCC(=O)N1CCc2c(C(=O)N3CC=C(c4ccc(F)c(F)c4C(F)(F)F)CC3)n[nH]c2C1 [Compound 9]
> 180 | < 7.44 | 18.6 | 74.5 | – | – | – | – | 72 | 1200 | 113 | 468 | 30 | – | – | – | – | NC(=O)CN1CCc2c(C(=O)N3CC=C(c4ccc(F)c(F)c4C(F)(F)F)CC3)n[nH]c2C1 [Compound 10]
140 | 9.9 | 11.4 | 121 | – | – | – | – | – | – | – | – | – | – | – | – | – | CNC(=O)CN1CCc2c(C(=O)N3CC=C(c4ccc(F)c(F)c4C(F)(F)F)CC3)n[nH]c2C1 [Compound 11]
126 | 11 | 4.2 | 330 | – | – | – | – | – | – | – | – | – | – | – | – | – | CN(C)C(=O)CN1CCc2c(C(=O)N3CC=C(c4ccc(F)c(F)c4C(F)(F)F)CC3)n[nH]c2C1 [Compound 12]
> 180 | < 7.44 | 30.2 | 45.8 | – | – | – | – | 67 | 6040 | – | 1200 | 120 | – | – | – | – | O=C(c1n[nH]c2c1CCNC2)N1CC=C(c2cccc(F)c2C(F)(F)F)CC1 [Compound 13]
> 180 | < 7.44 | 30 | 46.2 | – | – | – | – | 53 | – | – | – | – | 6000 | 452 | 364 | 318 | O=C(c1n[nH]c2c1CCNC2)N1CC=C(c2ccc(F)c(F)c2C(F)(F)F)CC1 [Compound 14]
> 180 | < 7.44 | 17.4 | 79.9 | – | – | – | – | 77 | – | – | – | – | 319 | 185 | 141 | 30 | NC(=O)CN1CCc2c(C(=O)N3CC=C(c4cccc(F)c4C(F)(F)F)CC3)n[nH]c2C1 [Compound 15]
> 180 | < 7.44 | > 180 | < 7.44 | – | – | – | – | – | – | – | – | – | 490 | 101 | 235 | 30 | NC(=O)C(=O)N1CCc2c(C(=O)N3CC=C(c4ccc(F)c(F)c4C(F)(F)F)CC3)n[nH]c2C1 [Compound 16]
> 180 | < 7.44 | 36.4 | 38.1 | 17800 | 201 | 2860 | 108 | – | – | – | – | – | – | – | – | – | O=C(c1n[nH]c2c1COCC2)N1CC=C(c2ccc(F)c(F)c2C(F)(F)F)CC1 [Compound 17]
> 180 | < 7.44 | 18.8 | 73.5 | – | – | – | – | – | – | – | – | – | – | – | – | – | O=C1NCC[C@@H]1N1CCc2c(C(=O)N3CC=C(c4ccc(F)c(F)c4C(F)(F)F)CC3)n[nH]c2C1 [Compound 18]
> 180 | < 7.44 | 74.6 | 18.6 | – | – | – | – | – | 41.9 | 119 | 22.3 | 50 | – | – | – | – | CC(C(N)=O)C(=O)N1CCc2c(C(=O)N3CC=C(c4ccc(F)c(F)c4C(F)(F)F)CC3)n[nH]c2C1 (stereo not shown) [Compound 19]
99 | 14 | 13.7 | 101 | – | – | – | – | – | 208 | 97.8 | 112 | 30 | – | – | – | – | O=C1NCC[C@@H]1N1CCc2c(C(=O)N3CC=C(c4cccc(F)c4C(F)(F)F)CC3)n[nH]c2C1 [Compound 20]
> 180 | < 7.44 | 136 | 10.2 | – | – | – | – | 14 | 1200 | 152 | 519 | 30 | – | – | – | – | NC(=O)C(=O)N1CCc2c(C(=O)N3CC=C(c4cccc(F)c4C(F)(F)F)CC3)n[nH]c2C1 [Compound 21]
54.3 | 25.5 | 10.7 | 130 | – | – | – | – | – | – | – | – | – | – | – | – | – | O=C(c1n[nH]c2c1COCC2)N1CC=C(c2cccc(F)c2C(F)(F)F)CC1 [Compound 23]
– | – | – | – | – | – | – | – | – | 8830 | 92.4 | 3230 | 40.2 | – | – | – | – | CC(=O)N1CCc2c(C(=O)N3CCC(c4ccc(F)c(F)c4C(F)(F)F)CC3)n[nH]c2C1 [reference compound, 1-(3-(4-(3,4-difluoro-2-(trifluoromethyl)phenyl)piperidine-1-carbonyl)-4,5-dihydro-1H-pyrazolo[3,4-c]pyridin-6(7H)-yl)ethanone, reference compound]
